Test system: Hs578T multi-cell spheroids, viability
Assay: Anticancer human tumor Hs578T cell line growth inhibition [IpAb];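 further: drug exposure lasted 7 days before readout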
Settings: for IC50: curve of first compound; for viability, T/C: stronger effect = lower value
Procedure, shortened: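 Multi-cell spheroids of 60% tumour cells, 25% HUVEC and 15% MSC in ultra-low-attachment U-bottom wells, treated with agents combined with ipatasertib or abemaciclib. Half-log ranges top out near clinical Cmax, or 10 microM when Cmax is unknown.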

[1] = second compound 0.01 µM, first compound 0.0316 µM
[2] = second compound 0.01 µM, first compound 0.1 µM
[3] = second compound 0.01 µM, first compound 0.316 µM
[4] = second compound 0.01 µM, first compound 1 µM
[5] = second compound 0.01 µM, first compound 3.16 µM
[6] = second compound 0.01 µM, first compound 10 µM
[7] = second compound 0.0316 µM, first compound 0.0316 µM
[8] = second compound 0.0316 µM, first compound 0.1 µM
[9] = second compound 0.0316 µM, first compound 0.316 µM
[10] = second compound 0.0316 µM, first compound 1 µM
[11] = second compound 0.0316 µM, first compound 3.16 µM
[12] = second compound 0.0316 µM, first compound 10 µM
[13] = second compound 0.1 µM, first compound 0.0316 µM
[14] = second compound 0.1 µM, first compound 0.1 µM
[15] = second compound 0.1 µM, first compound 0.316 µM
[16] = second compound 0.1 µM, first compound 1 µM
[17] = second compound 0.1 µM, first compound 3.16 µM
[18] = second compound 0.1 µM, first compound 10 µM
[19] = second compound 0.316 µM, first compound 0.0316 µM
[20] = second compound 0.316 µM, first compound 0.1 µM
[21] = second compound 0.316 µM, first compound 0.316 µM
[22] = second compound 0.316 µM, first compound 1 µM
[23] = second compound 0.316 µM, first compound 3.16 µM
[24] = second compound 0.316 µM, first compound 10 µM
[25] = second compound 1 µM, first compound 0.0316 µM
[26] = second compound 1 µM, first compound 0.1 µM
[27] = second compound 1 µM, first compound 0.316 µM
[28] = second compound 1 µM, first compound 1 µM
[29] = second compound 1 µM, first compound 3.16 µM
[30] = second compound 1 µM, first compound 10 µM

Structure (SMILES)	IC50 (second compound 0.01 µM)	IC50 (second compound 0.0316 µM)	IC50 (second compound 0.1 µM)	IC50 (second compound 0.316 µM)	IC50 (second compound 1 µM)	viability, T/C [1]	viability, T/C [2]	viability, T/C [3]	viability, T/C [4]	viability, T/C [5]	viability, T/C [6]	viability, T/C [7]	viability, T/C [8]	viability, T/C [9]	viability, T/C [13]	viability, T/C [14]	viability, T/C [19]	viability, T/C [20]	viability, T/C [25]	viability, T/C [26]	other results
C=CC(=O)N1CCN(c2nc(=O)n(-c3c(C)ccnc3C(C)C)c3nc(-c4c(O)cccc4F)c(F)cc23)C(C)C1 (stereo not given) + CCN1CCN(Cc2ccc(Nc3ncc(F)c(-c4cc(F)c5nc(C)n(C(C)C)c5c4)n3)nc2)CC1	> 10000 nM	> 10000 nM	> 10000 nM	> 10000 nM	> 10000 nM	97.5%	103%	101%	96.2%	98.8%	74.5%	96%	97.2%	100%	92.5%	86.3%	93.2%	95.5%	104%	107%	viability, T/C [10]: 96%; viability, T/C [11]: 92.3%; viability, T/C [12]: 76.8%; viability, T/C [15]: 94.1%; viability, T/C [16]: 102%; viability, T/C [17]: 92.5%; viability, T/C [18]: 77.2%; viability, T/C [21]: 98%; viability, T/C [22]: 101%; viability, T/C [23]: 92.8%; viability, T/C [24]: 77.9%; viability, T/C [27]: 112%; viability, T/C [28]: 118%; viability, T/C [29]: 101%; viability, T/C [30]: 88.4%
Cn1ncc(Cl)c1-c1cc(C(=O)NC(CN)Cc2cccc(F)c2)sc1Cl (stereo not given) + CCN1CCN(Cc2ccc(Nc3ncc(F)c(-c4cc(F)c5nc(C)n(C(C)C)c5c4)n3)nc2)CC1	1410 nM	1330 nM	791 nM	829 nM	1210 nM	92.1%	83.3%	67.1%	49.1%	46.8%	0.26%	86%	76.8%	65.2%	80.5%	67.5%	81.2%	72%	90%	76.6%	viability, T/C [10]: 51.2%; viability, T/C [11]: 42%; viability, T/C [12]: 0.24%; viability, T/C [15]: 52.9%; viability, T/C [16]: 42.5%; viability, T/C [17]: 42.5%; viability, T/C [18]: 0.24%; viability, T/C [21]: 56.7%; viability, T/C [22]: 47.6%; viability, T/C [23]: 33.9%; viability, T/C [24]: 0.21%; viability, T/C [27]: 67.3%; viability, T/C [28]: 60.1%; viability, T/C [29]: 7.93%; viability, T/C [30]: 0.46%
Cn1ncnc1[C@H]1c2n[nH]c(=O)c3cc(F)cc(c23)N[C@@H]1c1ccc(F)cc1 + CCN1CCN(Cc2ccc(Nc3ncc(F)c(-c4cc(F)c5nc(C)n(C(C)C)c5c4)n3)nc2)CC1	> 100 nM	> 100 nM	> 100 nM	> 100 nM	> 100 nM	93.4%	88.4%					87.3%	84.8%		85.5%	85.7%	84.6%	85.3%	102%	94.7%	viability, T/C (second compound 0.01 µM, first compound 0.000316 µM): 101%; viability, T/C (second compound 0.01 µM, first compound 0.001 µM): 100%; viability, T/C (second compound 0.01 µM, first compound 0.00316 µM): 95.2%; viability, T/C (second compound 0.01 µM, first compound 0.01 µM): 88.1%; viability, T/C (second compound 0.0316 µM, first compound 0.000316 µM): 99.3%; viability, T/C (second compound 0.0316 µM, first compound 0.001 µM): 94.3%; viability, T/C (second compound 0.0316 µM, first compound 0.00316 µM): 91.5%; viability, T/C (second compound 0.0316 µM, first compound 0.01 µM): 93%; viability, T/C (second compound 0.1 µM, first compound 0.000316 µM): 84.9%; viability, T/C (second compound 0.1 µM, first compound 0.001 µM): 87.8%; viability, T/C (second compound 0.1 µM, first compound 0.00316 µM): 86.8%; viability, T/C (second compound 0.1 µM, first compound 0.01 µM): 81.8%; viability, T/C (second compound 0.316 µM, first compound 0.000316 µM): 89.8%; viability, T/C (second compound 0.316 µM, first compound 0.001 µM): 88.2%; viability, T/C (second compound 0.316 µM, first compound 0.00316 µM): 91.8%; viability, T/C (second compound 0.316 µM, first compound 0.01 µM): 86.7%; viability, T/C (second compound 1 µM, first compound 0.000316 µM): 106%; viability, T/C (second compound 1 µM, first compound 0.001 µM): 102%; viability, T/C (second compound 1 µM, first compound 0.00316 µM): 104%; viability, T/C (second compound 1 µM, first compound 0.01 µM): 102%

From PubChem BioAssay AID2060331 (Molecular Pharmacology Branch, DTP, NCI, 2025)
